Laboratory results taken from patent US7220732B2, “Compounds useful as photodynamic therapeutic agents” (priority 2002, dated 2007).
Read-outs that look alike come from different tables or passages of the source.

Key:
[1] = Fluorescence emission and fluorescence quantum yield; assay type: physicochemical; conditions: for Φf (fluorescence quantum yield): relative to magnesium tetra-tert-butylphthalocyanine in CHCl3, room temperature
Text: (§1) The absorption bands of each photosensitiser are relatively insensitive to solvent changes with solutions in water/Cremophor resulting in a further bathochromic shift of ˜10 nm (Table 1). Excitation of chloroform solutions of the 2a and 4a at 635 nm gave a fluorescence band at 672 and 673 nm respectively (FIG. 2, Table 2). […] The reduction in fluorescence quantum yield in the series would imply more efficient population of the triplet excited state which would benefit singlet oxygen production. The ability of 2 and 4 to produce singlet oxygen would be a prerequisite to them being potential PDT agents.

[2] = Spectroscopic absorbance properties; assay type: physicochemical
Text: as §1

HeLa cells = assay: Light/dark cytotoxicity study (MTT) in HeLa cells; assay type: cell-based
Procedure: (§2) MRC5 and HeLa cell cultures were maintained in MEM (minimum essential medium) containing 10% (v/v) foetal calf serum (FCS), 1% (v/v) non-essential amino acids, 2 μg/ml Fungizone (Trade Mark) (amphotericin B), 50 μg/ml penicillin, 50 μg/ml streptomycin, 20 mM HEPES and 1% (v/v) L-Glutamine. Cells were passaged at least twice before use in the cytotoxicity assays.
(§3) Stock haematoporphyrin water-dimethyl sulphoxide (DMSO) (100:1 (v/v)) solutions were diluted with MEM containing 10% FCS. Cells were seeded at 5,000 cells/well in 96-well plates and incubated for 24 hr at 37° C. The 24 hour incubation period was chosen having regard to the slower uptake of haernatoporphyrin in the absence of Cremophor, when compared to the compounds of the present invention in the presence of Cremophor (see below). Cells were then incubated with haematoporphyrin in the dark for 24 hr at 37° C. The haematoporphyrin laden culture medium was then removed by filtration, the cells were washed with PBS and fresh culture medium was added to each well. A 500 W light source, passed through a red glass and water filter barrier, (to ensure cells are irradiated with light of wavelength greater than 570 nm) was used to irradiate the plates for both 15 and 30 min. Following irradiation, the cells were incubated for a further 48 hr at 37° C. before being assessed for cell survival.
(§4) Stock 2a or 2b water-Cremophor EL (Trade Mark—CAS 61791-12-6) (1:250 (v/v)) solutions were diluted with MEM containing 10% FCS. Cells were seeded at 5,000 cells/well in 96-well plates and incubated for 24 hr at 37° C. Cells were then incubated with 2a or 2b in the dark for 3 hr at 37° C. The 3 hour incubation period was chosen to reflect the faster cellular uptake of 2a or 2b in the presence of Cremophor, when compared to the cellular uptake of haematoporphyrins in the absence of Cremophor. The 2a or 2b laden culture medium was then removed by filtration, the cells were washed with PBS and fresh culture medium was added to each well. The plates were then irradiated using a 500 W light source passed through a red glass and water filter barrier, (thereby ensuring cells are irradiated with light of wavelength greater than 570 nm) for both 15 and 30 min.
(§5) Following irradiation, the cells were incubated for a further 48 hr at 37° C. before being assessed for cell survival. The dark toxicity of compounds of the present invention was also assessed in each experiment.
(§6) Cell viability was estimated using the standard MTT (microtiter tetrazolium) assay. This assay measures mitochondrial dehydrogenase activity and is based on the reduction of a soluble yellow tetrazolium salt to a blue, insoluble MTT formazan product by this enzyme. The subsequent colour change produced by viable cells was quantified using a plate reader (VICTOR^2 1420 multilabel HTS counter, Wallac). As mentioned above under the headings “Cytotoxicity”, the cells are incubated at 37° C. for 48 hours, following which the MTT solution was added to the cells at a final concentration of 0.5 mg/ml and incubated for 3 hr at 37° C. The MTT solution was then removed by filtration and 100 μl DMSO was added to each well in order to lyse the cells and release the formazan dye. The plates were read 1 hr later at 540 nm.
(§7) Prism (Trade Mark) […] was used to graph the data obtained from the MTT assays and the uptake/efflux experiments. This programme allows non-linear regression analysis and the generation of sigmoidal dose response curves. Prism (Trade Mark) also automatically calculates EC50 values.
(§8) Light toxicity assays were also carried out as described above under “Assay methods” in HeLa and MRC5 cells for haematoporphyrin (FIGS. 9 and 10), 2a (FIGS. 11 and 12) and 2b (FIGS. 13 and 14).

MRC5 cells = assay: Light/dark cytotoxicity study (MTT) in MRC5 cells; assay type: cell-based
Procedure: as §2, §3, §4, §5, §6, §7, §8

[3] = CHCl3, room temperature, excitation at 635 nm
[4] = Water/Cremophor (100:1), room temperature

λ em (fluorescence band) [1, 3]	λ em (fluorescence band) [1, 4]	Φf (fluorescence quantum yield) [1]	fwhm (full width at half maximum) ([2]; CHCl3, room temperature)	ε (molar extinction coefficient) ([2]; CHCl3, room temperature)	λmax (absorbance) ([2]; CHCl3, room temperature)	fwhm (full width at half maximum) [2, 4]	λmax (absorbance) [2, 4]	Compound	EC50 (HeLa cells; Homo sapiens, light or radiation study, 0 J/cm^2 light (no light), read-out: EC50 (dark toxicity))	EC50 (HeLa cells; Homo sapiens, light or radiation study, 0.25 h, 8 J/cm^2 light (15 mins from a 500 W light source), read-out: EC50)	EC50 (HeLa cells; Homo sapiens, light or radiation study, 0.5 h, 16 J/cm^2 light (30 mins from a 500 W light source), read-out: EC50)	EC50 (MRC5 cells; Homo sapiens, light or radiation study, 0.25 h, MRC5, 8 J/cm^2 light (15 mins from a 500 W light source), read-out: EC50)	EC50 (MRC5 cells; Homo sapiens, light or radiation study, 0.5 h, MRC5, 16 J/cm^2 light (30 mins from a 500 W light source), read-out: EC50)	EC50 (MRC5 cells; Homo sapiens, light or radiation study, MRC5, 0 J/cm^2 light (no light), read-out: EC50 (dark toxicity))	EC50 (HeLa cells; 0 J/cm^2 light (no light), read-out: EC50 (dark toxicity))	EC50 (HeLa cells; 8 J/cm^2 light (15 mins from a 500 W light source), read-out: EC50)	EC50 (HeLa cells; 16 J/cm^2 light (30 mins from a 500 W light source), read-out: EC50)	EC50 (dark toxicity) (MRC5 cells; MRC5, 0 J/cm^2 light (no light))	EC50 (MRC5 cells; MRC5, 8 J/cm^2 light (15 mins from a 500 W light source), read-out: EC50)	EC50 (MRC5 cells; MRC5, 16 J/cm^2 light (30 mins from a 500 W light source), read-out: EC50)
714 nm	719 nm	0.10	57 nm	75,000 M^−1cm^−1	679 nm	86 nm	685 nm	COc1ccc(C2=[N+]3C(=Nc4c(-c5ccccc5)c(Br)c(-c5ccc(OC)cc5)n4[B-]3(F)F)C(c3ccccc3)=C2Br)cc1 [Compound 4b]												
715 nm	727 nm	0.36	55 nm	85,000 M^−1cm^−1	688 nm	57 nm	696 nm	COc1ccc(C2=[N+]3C(=Nc4c(-c5ccccc5)cc(-c5ccc(OC)cc5)n4[B-]3(F)F)C(c3ccccc3)=C2)cc1 [Compound 2b]							62 µM	53 µM	25 µM	un-measurable	220 µM	22 µM

Second part, the compound before the results:

Compound	λ em (fluorescence band) [1, 3]	λ em (fluorescence band) [1, 4]	Φf (fluorescence quantum yield) [1]	fwhm (full width at half maximum) ([2]; CHCl3, room temperature)	ε (molar extinction coefficient) ([2]; CHCl3, room temperature)	λmax (absorbance) ([2]; CHCl3, room temperature)	fwhm (full width at half maximum) [2, 4]	λmax (absorbance) [2, 4]	EC50 (HeLa cells; Homo sapiens, light or radiation study, 0 J/cm^2 light (no light), read-out: EC50 (dark toxicity))	EC50 (HeLa cells; Homo sapiens, light or radiation study, 0.25 h, 8 J/cm^2 light (15 mins from a 500 W light source), read-out: EC50)	EC50 (HeLa cells; Homo sapiens, light or radiation study, 0.5 h, 16 J/cm^2 light (30 mins from a 500 W light source), read-out: EC50)	EC50 (MRC5 cells; Homo sapiens, light or radiation study, 0.25 h, MRC5, 8 J/cm^2 light (15 mins from a 500 W light source), read-out: EC50)	EC50 (MRC5 cells; Homo sapiens, light or radiation study, 0.5 h, MRC5, 16 J/cm^2 light (30 mins from a 500 W light source), read-out: EC50)	EC50 (MRC5 cells; Homo sapiens, light or radiation study, MRC5, 0 J/cm^2 light (no light), read-out: EC50 (dark toxicity))	EC50 (HeLa cells; 0 J/cm^2 light (no light), read-out: EC50 (dark toxicity))	EC50 (HeLa cells; 8 J/cm^2 light (15 mins from a 500 W light source), read-out: EC50)	EC50 (HeLa cells; 16 J/cm^2 light (30 mins from a 500 W light source), read-out: EC50)	EC50 (dark toxicity) (MRC5 cells; MRC5, 0 J/cm^2 light (no light))	EC50 (MRC5 cells; MRC5, 8 J/cm^2 light (15 mins from a 500 W light source), read-out: EC50)	EC50 (MRC5 cells; MRC5, 16 J/cm^2 light (30 mins from a 500 W light source), read-out: EC50)
CC1=C(CCC(=O)O)c2cc3[nH]c(cc4nc(cc5[nH]c(cc1n2)c(C)c5C(C)O)C(C)=C4C(C)O)c(C)c3CCC(=O)O (stereo not shown) [haematoporphyrin, reference compound]									77 µM	15 µM	16 µM	42 µM	29 µM	1400 µM						
F[B-]1(F)n2c(-c3ccccc3)cc(-c3ccc(Br)cc3)c2N=C2C(c3ccc(Br)cc3)=CC(c3ccccc3)=[N+]21 [Compound 5a]	680 nm				74,000 M^−1cm^−1	658 nm		667 nm												
F[B-]1(F)n2c(c(-c3ccccc3)c(Br)c2-c2ccccc2)N=C2C(c3ccccc3)=C(Br)C(c3ccccc3)=[N+]21 [Compound 4a]	673 nm	679 nm	0.012	47 nm	79,000 M^−1cm^−1	650 nm	57 nm	651 nm												
